Three compounds from PMC7031773, “Molecular Mechanisms Responsible for Pharmacological Effects of Genipin on Mitochondrial Proteins” (Biophysical Journal, 2019) can be followed below.

Common to all, as to format: biochemical
Test [1] concerns the target T1, mitochondrial uncoupling protein 1 (UCP1) (Mus musculus, UniProt P12242).
T1 construct: recombinant mouse UCP1 from E. coli inclusion bodies, reconstituted in lipid bilayers
T1 sequence (P12242 1-307): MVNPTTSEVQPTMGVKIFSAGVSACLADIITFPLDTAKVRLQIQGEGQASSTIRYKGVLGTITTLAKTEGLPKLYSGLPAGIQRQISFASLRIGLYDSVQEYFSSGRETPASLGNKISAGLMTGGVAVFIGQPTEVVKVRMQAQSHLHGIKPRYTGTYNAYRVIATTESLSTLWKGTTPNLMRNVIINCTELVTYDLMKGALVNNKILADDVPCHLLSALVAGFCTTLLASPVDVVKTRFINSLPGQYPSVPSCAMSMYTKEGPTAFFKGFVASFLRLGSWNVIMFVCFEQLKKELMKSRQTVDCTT
Briefly: planar lipid bilayer conductance with reconstituted UCP1.

Test [2] has as its target T1, mitochondrial uncoupling protein 1 (UCP1). Description: planar lipid bilayer conductance, competition of […] ATP with […] genipin. From the text: The first bar is the inhibition after the addition of ATP
Test [3] deals with T2, mitochondrial uncoupling protein 3 (UCP3) (Mus musculus, UniProt P56501).
T2 construct: recombinant mouse UCP3 from E. coli inclusion bodies, reconstituted in lipid bilayers
T2 sequence (P56501 1-308): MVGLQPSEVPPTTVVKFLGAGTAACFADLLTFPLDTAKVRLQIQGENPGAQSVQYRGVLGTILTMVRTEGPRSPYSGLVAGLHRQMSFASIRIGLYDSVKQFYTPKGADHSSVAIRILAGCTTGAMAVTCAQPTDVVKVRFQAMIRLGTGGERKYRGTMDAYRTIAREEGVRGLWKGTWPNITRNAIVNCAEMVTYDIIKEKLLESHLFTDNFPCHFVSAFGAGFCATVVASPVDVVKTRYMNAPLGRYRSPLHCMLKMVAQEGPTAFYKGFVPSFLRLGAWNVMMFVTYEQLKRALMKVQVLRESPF
Briefly: planar lipid bilayer conductance with reconstituted UCP3.

In test [4] the target is T3, mitochondrial uncoupling protein 2 (UCP2) (Mus musculus, UniProt P70406).
T3 construct: recombinant mouse UCP2 from E. coli inclusion bodies, reconstituted in lipid bilayers
T3 sequence (P70406 1-309): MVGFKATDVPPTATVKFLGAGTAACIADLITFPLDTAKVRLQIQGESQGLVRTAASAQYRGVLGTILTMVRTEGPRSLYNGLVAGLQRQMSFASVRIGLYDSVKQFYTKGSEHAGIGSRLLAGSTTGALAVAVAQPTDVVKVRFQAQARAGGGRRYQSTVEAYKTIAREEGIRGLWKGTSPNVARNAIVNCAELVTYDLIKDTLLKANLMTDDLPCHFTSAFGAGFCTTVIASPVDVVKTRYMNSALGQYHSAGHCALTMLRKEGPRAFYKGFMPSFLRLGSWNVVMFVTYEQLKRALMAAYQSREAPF
Briefly: planar lipid bilayer conductance with reconstituted UCP2.

In test [5] the target is T4, mitochondrial complex III (CIII) (Bos taurus, UniProt P00157).
T4 construct: gene MT-CYB; complex III isolated from bovine heart
Description: cytochrome c reduction by isolated complex III, […] genipin.

For test [6], the target named is T1, mitochondrial uncoupling protein 1 (UCP1). Briefly: planar lipid bilayer conductance with reconstituted UCP1; LC-MS/MS of covalent adducts; arginine mutants; competition with ATP.

The compound `COC(=O)C1=CO[C@@H](O[C@@H]2O[C@H](CO)[C@@H](O)[C@H](O)[C@H]2O)[C@@H]2C(CO)=CC[C@H]12` [geniposide] registered an EC50 in test [1] of 693 ± 90 µM.

For the compound `Nc1ncnc2c1ncn2[C@@H]1O[C@H](COP(=O)(O)OP(=O)(O)OP(=O)(O)O)[C@@H](O)[C@H]1O` [ATP], in test [2], the “planar lipid bilayer conductance, competition of 3 mM ATP with 50 μM genipin” value was “Competitive inhibition of UCP1 with genipin (GNP) and ATP. The first bar is the inhibition after the addition of ATP”.

As to `COC(=O)C1=CO[C@@H](O)[C@@H]2C(CO)=CC[C@H]12` [GNP, genipin], the values for the IC50 in test [3], in test [4] and in test [6] were 41 ± 12 µM, 94 ± 24 µM and 133 ± 12 µM, respectively. In test [5], this compound registered an activity at 50 µM of 63 ± 7%.

For orientation: EC50 means the midpoint of the concentration-response curve. The low end stands for greater potency, the high end for weaker potency. The IC50 is the point on the concentration scale where inhibition reaches its midpoint. A low value points to greater potency in that assay.
